Measurements published in ChEMBL document CHEMBL2321663, “Alkaloids from Sri Lankan curry-leaf (Murraya koenigii) display melanogenesis inhibitory activity: structures of karapinchamines A and B” (Bioorg Med Chem, 2013).

Legend:
[1] = target: T1, Tyrosinase (Agaricus bisporus) (UniProt O42713); assay: Inhibition of mushroom tyrosinase using L-DOPA as substrate after at 100 uM after 5 mins relative to control
T1 sequence (whole entry): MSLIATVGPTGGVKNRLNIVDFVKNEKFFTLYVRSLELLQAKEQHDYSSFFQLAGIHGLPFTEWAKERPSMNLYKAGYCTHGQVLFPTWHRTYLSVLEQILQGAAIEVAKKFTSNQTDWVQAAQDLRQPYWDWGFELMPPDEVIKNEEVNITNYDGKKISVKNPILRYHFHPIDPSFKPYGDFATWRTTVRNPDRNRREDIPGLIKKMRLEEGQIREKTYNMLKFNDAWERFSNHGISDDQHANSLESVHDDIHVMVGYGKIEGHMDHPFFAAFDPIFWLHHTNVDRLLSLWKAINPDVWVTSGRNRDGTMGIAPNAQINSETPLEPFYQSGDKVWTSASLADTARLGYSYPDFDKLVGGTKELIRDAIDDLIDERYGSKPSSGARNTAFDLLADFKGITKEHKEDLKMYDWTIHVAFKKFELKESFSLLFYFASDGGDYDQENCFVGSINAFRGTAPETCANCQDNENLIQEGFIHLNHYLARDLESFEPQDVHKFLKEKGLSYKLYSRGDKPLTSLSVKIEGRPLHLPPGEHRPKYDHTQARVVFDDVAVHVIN

[2] = target: T1, Tyrosinase (Agaricus bisporus); assay: Inhibition of mushroom tyrosinase using L-DOPA as substrate after at 30 uM after 5 mins relative to control
[3] = target: T1, Tyrosinase (Agaricus bisporus); assay: Inhibition of mushroom tyrosinase using L-DOPA as substrate after at 10 uM after 5 mins relative to control
[4] = target: T1, Tyrosinase (Agaricus bisporus); assay: Inhibition of mushroom tyrosinase using L-DOPA as substrate after at 3 uM after 5 mins relative to control
[5] = target: T1, Tyrosinase (Agaricus bisporus); assay: Inhibition of mushroom tyrosinase using L-DOPA as substrate after at 1 uM after 5 mins relative to control
[6] = Cytotoxicity against mouse theophylline-induced B16-4A5 cells assessed as cell viability at 10 uM after 72 hrs by WST8 assay relative to control; assay type: cell-based; details: read-out: Activity
[7] = Cytotoxicity against mouse theophylline-induced B16-4A5 cells assessed as cell viability at 30 uM after 72 hrs by WST8 assay relative to control; assay type: cell-based; details: read-out: Activity
[8] = Cytotoxicity against mouse theophylline-induced B16-4A5 cells assessed as cell viability at 3 uM after 72 hrs by WST8 assay relative to control; assay type: cell-based; details: read-out: Activity
[9] = Cytotoxicity against mouse theophylline-induced B16-4A5 cells assessed as cell viability at 1 uM after 72 hrs by WST8 assay relative to control; assay type: cell-based; details: read-out: Activity
[10] = Inhibition of theophylline-induced melanogenesis in mouse B16-4A5 cells after 72 hrs by spectrophotometric analysis relative to control; assay type: functional, cell-based
[11] = Inhibition of theophylline-induced melanogenesis in mouse B16-4A5 cells at 10 uM after 72 hrs by spectrophotometric analysis relative to control; assay type: functional; details: B16-4A5, 72 h
[12] = Inhibition of theophylline-induced melanogenesis in mouse B16-4A5 cells at 30 uM after 72 hrs by spectrophotometric analysis relative to control; assay type: functional; details: B16-4A5, 72 h
[13] = Inhibition of theophylline-induced melanogenesis in mouse B16-4A5 cells at 1 uM after 72 hrs by spectrophotometric analysis relative to control; assay type: functional; details: B16-4A5, 72 h
[14] = Inhibition of theophylline-induced melanogenesis in mouse B16-4A5 cells at 3 uM after 72 hrs by spectrophotometric analysis relative to control; assay type: functional; details: B16-4A5, 72 h
[15] = Inhibition of theophylline-induced melanogenesis in mouse B16-4A5 cells at 1000 uM after 72 hrs by spectrophotometric analysis relative to control; assay type: functional; details: B16-4A5, 72 h
[16] = Inhibition of theophylline-induced melanogenesis in mouse B16-4A5 cells at 300 uM after 72 hrs by spectrophotometric analysis relative to control; assay type: functional; details: B16-4A5, 72 h
[17] = Inhibition of theophylline-induced melanogenesis in mouse B16-4A5 cells at 100 uM after 72 hrs by spectrophotometric analysis relative to control; assay type: functional; details: B16-4A5, 72 h

Structure (SMILES): c1ccc2c(c1)[nH]c1ccccc12 [CARBAZOLE]
- inhibition [1]: 0.1%
- inhibition [2]: 1.7%
- inhibition [3]: -2.2%
- inhibition [4]: -1.8%
- inhibition [5]: 1%
- viability at 72 h, 10 µM [6]: 105%
- viability at 72 h, 30 µM [7]: 94.2%
- viability at 72 h, 3 µM [8]: 108%
- viability at 72 h, 1 µM [9]: 108%
- IC50 [10]: > 100 µM
- inhibition at 10 µM [11]: 36.8%
- inhibition at 30 µM [12]: 33.8%
- inhibition at 1 µM [13]: 31.3%
- inhibition at 3 µM [14]: 33.5%

Structure (SMILES): Cc1cc2c3ccc(O)cc3n3c2c2c1O[C@@]1(C)CC[C@H]([C@H]2C1)C3(C)C (relative stereo)
- inhibition [1]: 20.2%
- inhibition [2]: 15.3%
- inhibition [3]: 3.5%
- inhibition [4]: -0.6%
- inhibition [5]: -1.3%
- viability at 72 h, 10 µM [6]: 76.8%
- viability at 72 h, 30 µM [7]: 71.1%
- viability at 72 h, 3 µM [8]: 94.4%
- viability at 72 h, 1 µM [9]: 101%
- IC50 [10]: 2.9 µM
- inhibition at 10 µM [11]: 66%
- inhibition at 30 µM [12]: 74.3%
- inhibition at 1 µM [13]: 26.9%
- inhibition at 3 µM [14]: 50.8%

Structure (SMILES): COc1cccc2c1[nH]c1c3c(c(C)cc12)OC(C)(CCC=C(C)C)C=C3 (centres undefined)
- inhibition [1]: -0.8%
- inhibition [2]: 2.7%
- inhibition [3]: -2.8%
- inhibition [4]: -2.8%
- inhibition [5]: -1%
- viability at 72 h, 10 µM [6]: 73.8%
- viability at 72 h, 30 µM [7]: 46.3%
- viability at 72 h, 3 µM [8]: 97.3%
- viability at 72 h, 1 µM [9]: 101%
- IC50 [10]: 3.8 µM
- inhibition at 10 µM [11]: 71.8%
- inhibition at 1 µM [13]: 6.8%
- inhibition at 3 µM [14]: 40.4%

Structure (SMILES): CC(C)=CCCC1(C)C=Cc2c(ccc3c2[nH]c2ccc(C)cc23)O1 (centres undefined)
- inhibition [1]: -3.4%
- inhibition [2]: -0.3%
- inhibition [3]: -1.1%
- inhibition [4]: -0.7%
- inhibition [5]: 7.4%
- viability at 72 h, 10 µM [6]: 103%
- viability at 72 h, 30 µM [7]: 63.9%
- viability at 72 h, 3 µM [8]: 117%
- viability at 72 h, 1 µM [9]: 110%
- IC50 [10]: 2.2 µM
- inhibition at 10 µM [11]: 85.2%
- inhibition at 30 µM [12]: 78.4%
- inhibition at 1 µM [13]: 25.9%
- inhibition at 3 µM [14]: 60%

Structure (SMILES): COc1ccc2[nH]c3c4c(c(C)cc3c2c1)OC(C)(C)C=C4 [KOENIMBINE]
- inhibition [1]: 4.3%
- inhibition [2]: 1%
- inhibition [3]: -0.1%
- inhibition [4]: -1%
- inhibition [5]: 0.7%
- viability at 72 h, 10 µM [6]: 66.6%
- viability at 72 h, 30 µM [7]: 37.9%
- viability at 72 h, 3 µM [8]: 92.4%
- viability at 72 h, 1 µM [9]: 114%
- IC50 [10]: 1.2 µM
- inhibition at 10 µM [11]: 86.2%
- inhibition at 1 µM [13]: 42.5%
- inhibition at 3 µM [14]: 77%

Structure (SMILES): CC(C)=CCC/C(C)=C/Cc1c(O)ccc2[nH]c3ccc(C)cc3c12 [EUSTIFOLINE C]
- inhibition [1]: 16.1%
- inhibition [2]: 5.9%
- inhibition [3]: 2.3%
- inhibition [4]: 2.7%
- inhibition [5]: 1%
- viability at 72 h, 10 µM [6]: 79.2%
- viability at 72 h, 30 µM [7]: 9.9%
- viability at 72 h, 3 µM [8]: 96.5%
- viability at 72 h, 1 µM [9]: 104%
- IC50 [10]: 8.3 µM
- inhibition at 10 µM [11]: 55.9%
- inhibition at 1 µM [13]: 19.7%
- inhibition at 3 µM [14]: 25.2%

Structure (SMILES): CC(C)=CCCC1(C)C=Cc2c(c(C)cc3c2[nH]c2ccccc23)O1 (centres undefined) [MAHANIMBINE]
- inhibition [1]: 6.2%
- inhibition [2]: 2.7%
- inhibition [3]: -0.4%
- inhibition [4]: -3.2%
- inhibition [5]: -1.3%
- viability at 72 h, 10 µM [6]: 34.4%
- viability at 72 h, 30 µM [7]: 35.1%
- viability at 72 h, 3 µM [8]: 68.7%
- viability at 72 h, 1 µM [9]: 94.3%
- IC50 [10]: 1.4 µM
- inhibition at 1 µM [13]: 43.3%
- inhibition at 3 µM [14]: 63.9%

Structure (SMILES): OC[C@H]1O[C@@H](Oc2ccc(O)cc2)[C@H](O)[C@@H](O)[C@@H]1O [ARBUTIN]
- inhibition at 1000 µM [15]: 83.7%
- inhibition at 300 µM [16]: 61.5%
- inhibition at 100 µM [17]: 38.1%
- IC50 [10]: 174 µM
- inhibition at 30 µM [12]: 20.4%

Structure (SMILES): COc1ccc2c(c1)[nH]c1c3c(c(C)cc12)O[C@](C)(CCC=C(C)C)C=C3
- inhibition [1]: 4.2%
- inhibition [2]: 0.9%
- inhibition [3]: 0.1%
- inhibition [4]: 0.1%
- inhibition [5]: 0.1%
- viability at 72 h, 10 µM [6]: 94.9%
- viability at 72 h, 30 µM [7]: 66.3%
- viability at 72 h, 3 µM [8]: 98.7%
- viability at 72 h, 1 µM [9]: 105%
- IC50 [10]: 15.7 µM
- inhibition at 10 µM [11]: 40.8%
- inhibition at 30 µM [12]: 58.3%
- inhibition at 1 µM [13]: 10.9%
- inhibition at 3 µM [14]: 8.7%

Structure (SMILES): Oc1cccc2[nH]c3ccccc3c12
- inhibition [1]: 3.3%
- inhibition [2]: 0.9%
- inhibition [3]: 0.5%
- inhibition [4]: 0.3%
- inhibition [5]: 0.4%
- viability at 72 h, 10 µM [6]: 104%
- viability at 72 h, 30 µM [7]: 131%
- viability at 72 h, 3 µM [8]: 100%
- viability at 72 h, 1 µM [9]: 101%
- IC50 [10]: 13.5 µM
- inhibition at 10 µM [11]: 36.1%
- inhibition at 30 µM [12]: 66.9%
- inhibition at 1 µM [13]: 24.9%
- inhibition at 3 µM [14]: 32.9%

Structure (SMILES): COc1ccc2c([nH]c3cc(O)c(C)cc32)c1C/C=C(\C)CCC=C(C)C [EUCHRESTINE B]
- inhibition [1]: -1.1%
- inhibition [2]: -6.4%
- inhibition [3]: -4.3%
- inhibition [4]: -4.4%
- inhibition [5]: -6.5%
- viability at 72 h, 10 µM [6]: 83.7%
- viability at 72 h, 30 µM [7]: 1.9%
- viability at 72 h, 3 µM [8]: 102%
- viability at 72 h, 1 µM [9]: 105%
- IC50 [10]: 4.1 µM
- inhibition at 10 µM [11]: 74.2%
- inhibition at 1 µM [13]: 18.2%
- inhibition at 3 µM [14]: 40.6%
